Counter-ions that a name gives are not always drawn.
Columns and labels:
[1] = test system: children with non-syndromic autism spectrum disorder (ASD) and language impairment; assay: Randomized double-blind placebo-controlled trial: verbal communication (CELF-preschool-2, CELF-4, PLS-5), primary outcome; assay type: in vivo, human; settings: for Verbal communication, effect size (Cohen's d) / Verbal communication, estimated effect vs placebo / Verbal communication, 12 weeks: 2 mg kg^−1 per day; for Verbal communication, effect size (Cohen's d) / Verbal communication, estimated effect vs placebo / % Difference responders (folinic acid vs placebo) / Adjusted odds ratio of response / Number needed to treat / Unadjusted odds ratio of response / % responders / Number of responders (increase in five standardized points, verbal communication): 12 weeks; for Verbal communication, estimated effect vs placebo: mixed-model regression
Description: We sought to determine whether high-dose folinic acid improves verbal communication in children with non-syndromic autism spectrum disorder (ASD) and language impairment in a double-blind placebo control setting. Forty-eight children (mean age 7 years 4 months; 82% male) with ASD and language impairment were randomized to receive 12 weeks of high-dose folinic acid (2 mg kg^-1 per day, maximum 50 mg per day; n=23) or placebo (n=25). Children were subtyped by glutathione and folate receptor-α autoantibody (FRAA) status. […] FRAA status was predictive of response to treatment. […] 2012 to 22 Nov. 2013. Participants who met inclusion and exclusion criteria were screened for language impairment. Preverbal (<25 functional words) children qualified as language impaired. Otherwise, the age-appropriate version of the Clinical Evaluation of Language Fundamentals (CELF) confirmed language impairment. Language impairment was defined as a core standardized score<85 if the preschool version was used or failure on the CELF screener if other versions were used. Those confirmed to have language impairment were randomized to the folinic acid or placebo group and a fasting blood sample was obtained. Randomization was performed using a random number generator with a block size of four. The research pharmacists had exclusive access to the randomization allocation. After breakfast, the participants returned for language, developmental and behavioral assessments. Following these assessments the family was given the 12 weeks of the intervention and was instructed on its administration. Language, developmental and behavioral assessments were repeated after 12 weeks of treatment. The target dose of the intervention (INN: DL folinic acid calcium salt; USAN: leucovorin calcium) was 2 mg kg^-1 per day (maximum 50 mg per day) in two equally divided doses with half of the target dose given during the first 2 weeks. Dye-free, milk-product-free, vegetarian capsules were provided in three strengths (5, 10 and 25 mg) by Lee Silsby Compounding Pharmacy (Cleveland Heights, Ohio, USA). Certificate of analysis was provided for each capsule strength by an independent analytical service (Eagle Analytical Services, Houston, Tex., USA) for each batch of capsules produced. In all cases, potency was at least 99%. Primary outcome. Verbal communication was the primary outcome for several reasons. First, verbal communication improved in preliminary folinic acid treatment studies. Second, verbal communication in children with ASD is closely linked to parental quality of life. Third, the development of language and communication skills is associated with favorable outcomes. Instruments used were the CELF-preschool-2, CELF-4 and the Preschool Language Scale-5 (PLS-5). The standardized summary score of each instrument (mean 100, standard deviation 15) was the primary outcome measure and ranges from 50 to 150 for the PLS-5 and 45 to 155 for the CELF. The ability-appropriate instrument was selected using a structured algorithm. The goal was to select an instrument with an adequate dynamic range for assessing improvement in verbal communication. The assessment started with the most age-appropriate instrument. If the child obtained a score at the floor, the next lower ability instrument was then used. This process was repeated until a score above the floor could be obtained. The score from the final instrument was the primary outcome measure at baseline and at trial end. If the child's age exceeded the maximum age of the instrument's standardization, the maximum standardized age was used. At trial end, all instruments used during the baseline assessment were repeated in the same order to simulate the same baseline assessment experience and to minimize a potential confounder of cognitive fatigue. Studies have shown that early behavioral therapy improves verbal communication by one-standard deviation over 36 weeks. […]

[2] = test system: children with neurodevelopmental regression and neurological abnormalities (cerebral folate deficiency); settings: six children with cerebral folate deficiency; cited from earlier work
[3] = cited from earlier work
[4] = antibody negative, folinic acid N = 10
[5] = antibody positive, folinic acid N = 13
[6] = glutathione high, folinic acid N = 14
[7] = glutathione low, folinic acid N = 9

In the case of `Nc1nc2c(c(=O)[nH]1)N(C=O)C(CNc1ccc(C(=O)N[C@@H](CCC(=O)O)C(=O)O)cc1)CN2` (mixture of isomers) [Folinic acid, DL folinic acid calcium salt], the “Verbal communication, effect size (Cohen's d)” value ([1]; FRAA antibody negative N=17) is reported as 0.30, the “Verbal communication, estimated effect vs placebo” value (“Verbal communication … vs placebo” for short) ([1]; FRAA antibody negative N=17, calcium salt) is reported as 2.5 standardized score and the “Verbal communication … vs placebo” value ([1]; FRAA antibody negative N=17, listed as folinic acid, calcium salt) is reported as “not significantly different”. The “Verbal communication, effect size (Cohen's d)” value ([1]; FRAA antibody positive N=31) was 0.91, the “Verbal communication … vs placebo” value ([1]; FRAA antibody positive N=31, calcium salt) was 7.3 standardized score and the “Verbal communication, effect size (Cohen's d)” value ([1]; glutathione redox ratio high N=24) was 0.46. The “Verbal communication … vs placebo” value ([1]; glutathione redox ratio high N=24, calcium salt) was 3.0 standardized score, the “Verbal communication … vs placebo” value ([1]; glutathione redox ratio high N=24, listed as folinic acid, calcium salt) was “not significantly different” and the “Verbal communication, effect size (Cohen's d)” value ([1]; glutathione redox ratio low N=24) was 0.95. The “Verbal communication … vs placebo” value ([1]; glutathione redox ratio low N=24, calcium salt) was 9.1 standardized score, the “Verbal communication … vs placebo” value ([1]; glutathione redox ratio low N=24, listed as folinic acid, calcium salt) was “significantly greater” and the “Verbal communication, effect size (Cohen's d)” value ([1]; overall N=48) was 0.70. For the same compound, the “Verbal communication … vs placebo” value ([1]; overall N=48, calcium salt) was 5.7 standardized score, the “Verbal communication, 12 weeks” value ([1]; FRAA antibody negative, baseline 57.9) was 64.5 standardized score and the “Verbal communication, 12 weeks” value ([1]; FRAA antibody positive, baseline 58.1) was 66.1 standardized score. For the same compound, the “Verbal communication, 12 weeks” value ([1]; glutathione redox ratio high, baseline 59.2) was 65.0 standardized score, the “Verbal communication, 12 weeks” value ([1]; glutathione redox ratio low, baseline 56.1) was 66.0 standardized score and the “Verbal communication, 12 weeks” value ([1]; overall, baseline 58.1) was 65.4 standardized score. For the same compound, the “% Difference responders (folinic acid vs placebo)” value (“% Difference responders” for short) ([1]; antibody negative) was 21%, the “Adjusted odds ratio of response” value ([1]; antibody negative) was 3.6 and the “Number needed to treat” value ([1]; antibody negative) was 4.7. For the same compound, the “Unadjusted odds ratio of response” value ([1]; antibody negative) was 2.5, the “% responders” value [1, 4] was 50% and the “Number of responders (increase in five standardized points, verbal communication)” value [1, 4] was 5. The “% Difference responders” value ([1]; antibody positive) was 55% (19%,, the “Adjusted odds ratio of response” value ([1]; antibody positive) was 67.4 and the “Number needed to treat” value ([1]; antibody positive) was 1.8. The “Unadjusted odds ratio of response” value ([1]; antibody positive) was 11.7, the “% responders” value [1, 5] was 77% and the “Number of responders (increase in five standardized points, verbal communication)” value [1, 5] was 10. For the same compound, the “% Difference responders” value ([1]; glutathione high) was 34% (−4%,, the “Adjusted odds ratio of response” value ([1]; glutathione high) was 21.9 and the “Number needed to treat” value ([1]; glutathione high) was 2.9. For the same compound, the “Unadjusted odds ratio of response” value ([1]; glutathione high) was 4.2, the “% responders” value [1, 6] was 64% and the “Number of responders (increase in five standardized points, verbal communication)” value [1, 6] was 9. The “% Difference responders” value ([1]; glutathione low) was 47% (10%,, the “Adjusted odds ratio of response” value ([1]; glutathione low) was 10.2 and the “Number needed to treat” value ([1]; glutathione low) was 2.1. The “Unadjusted odds ratio of response” value ([1]; glutathione low) was 8.0, the “% responders” value [1, 7] was 67% and the “Number of responders (increase in five standardized points, verbal communication)” value [1, 7] was 6. For the same compound, the “Adjusted odds ratio of response” value ([1]; overall) was 14.9, the “Number needed to treat” value ([1]; overall) was 2.4 and the “Unadjusted odds ratio of response” value ([1]; overall) was 5.9. The “% responders” value ([1]; overall, folinic acid N = 23) was 65%, the “Number of responders (increase in five standardized points, verbal communication)” value ([1]; overall, folinic acid N = 23) was 15 and the “% Difference responders” value ([1]; overall, calcium salt) was 41% (13%,. The “% Difference responders” value ([1]; overall, listed as folinic acid, calcium salt) was “significantly more responders”, the CSF folate concentrations [2] was “normalized” and the Neurological symptoms [2] was “significantly improved”. For the same compound, the “Absorption following oral administration” value [3] was “rapidly absorbed”.

Source: patent US20190111059A1, “COMPOSITIONS AND METHODS FOR TREATING AUTISM SPECTRUM DISORDER” (Marinus Pharmaceuticals, Inc., priority 2017, published 2019)
